From patent US4265910A (priority 1979, dated 1981)
Where a name gives a salt, the structure may show the parent alone. Read-outs that look alike come from different tables or passages of the source.

Key:
serum interferon = experiment: animal or person; type: in vivo, ICR female mice; details: Mus musculus, L929, ip, 20 h, read-out: Plaque inhibition
[1] = tested on: vaccinia virus (DIE strain); type: in vivo, ICR female mice; details: 8th day after inoculation
Human fibroblast cells = experiment: cells; type: cell-based; details: read-out: Inhibition of cytolysis
[2] = Acute toxicity (50% lethal dose); details: mouse, in vivo, ddY male mice 20-25 g
From the text: In order to investigate acute toxicity of the ingredients of the present invention, 50% lethal dose of each ingredient was obtained by intravenous and intraperitoneal administration thereof by ddY male mice weighing 20-25 g. From the results shown in Table 5, it is understood that the ingredients had high safety margin.

[3] = ip, intraperitoneal, read-out: 50% Lethal dose, intraperitoneally administered
[4] = intravenous, read-out: 50% Lethal dose, intravenously administered

Row | Compound | inhibition at 40 mg/kg (serum interferon) | Inhibition of tail lesion ([1]; 20 mg/kg i.p., dosed one time) | Inhibition of tail lesion ([1]; 30 mg/kg i.p., dosed one time) | Inhibition of tail lesion ([1]; 100 mg/kg p.o., dosed one time) | inhibition at 5 µg/disc (Human fibroblast cells) | LD50 [2, 3] | LD50 [2, 4] | inhibition at 20 mg/kg (serum interferon) | Inhibition of tail lesion ([1]; 30 mg/kg s.c., dosed one time) | Inhibition of tail lesion ([1]; 40 mg/kg p.o., dosed one time) | Inhibition of tail lesion ([1]; 20 mg/kg i.p., consecutively dosed (6 times)) | Inhibition of tail lesion ([1]; 20 mg/kg p.o., consecutively dosed (6 times)) | Inhibition of tail lesion ([1]; 40 mg/kg i.p., consecutively dosed (6 times)) | Inhibition of tail lesion ([1]; 40 mg/kg i.p., dosed one time) | Inhibition of tail lesion ([1]; 50 mg/kg p.o., dosed one time)
1 | CC(C)=CCCC(C)=CCCC(C)=CCCC(C)=CCCC(C)=CCCC(C)=CCCC(C)=CCCC(C)=CCCC(C)=CCCC(C)=CCCC(C)=CCN [Undecaprenylamine hydrochloride] | 70.3% | 52.4% | 40.5% | 45.6% | 83.3% | > 1000 mg/kg | 18 mg/kg |  |  |  |  |  |  |  | 
2 | CC(C)=CCCC(C)=CCCC(C)=CCCC(C)=CCCC(C)=CCCC(C)=CCCC(C)=CCCC(C)=CCCC(C)=CCN [Solanesylamine hydrochloride, solanesylamine hydrochloride] | 79.7% | 35.7% | 72.1% |  | 55.4% | > 500 mg/kg | 32.3 mg/kg | 81% | 23.2% | 40.5% |  |  |  |  | 
3 | CC(C)=CCCC(C)=CCCC(C)=CCCC(C)=CCCC(C)=CCCC(C)=CCCC(C)=CCCC(C)=CCCC(C)=CCCC(C)=CCN [Decaprenylamine hydrochloride] | 83% | 76.1% | 68.7% |  | 64.9% | 1000 mg/kg | 39.5 mg/kg | 47.1% | 69.7% |  | 77.4% | 56.8% | 88.2% | 79.6% | 24.1%
